Measurements taken from patent publication US20140120087A1, “TRIAZOLOPYRIDINES” (BAYER INTELLECTUAL PROPERTY GMBH, priority 2011, published 2014).

How the values were obtained:
[1] = Hydrolytic stability assay at pH 2; assay type: physicochemical; settings: buffer pH 2, 37° C., compounds of the invention
Summary of the method: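 Compound from a 10 mM DMSO stock was diluted in acetonitrile, added to pH 2 buffer and incubated at 37° C. HPLC injections were made at time zero and after 1, 2 and 24 hrs. Decay (%) was calculated from peak areas relative to the time-zero injection.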

Mps-1 kinase [2] = molecular target: T1, Mps-1 kinase (Homo sapiens, UniProt P33981); assay: Mps-1 kinase assay with 2 mM ATP (TR-FRET)
T1 sequence (P33981 1-857): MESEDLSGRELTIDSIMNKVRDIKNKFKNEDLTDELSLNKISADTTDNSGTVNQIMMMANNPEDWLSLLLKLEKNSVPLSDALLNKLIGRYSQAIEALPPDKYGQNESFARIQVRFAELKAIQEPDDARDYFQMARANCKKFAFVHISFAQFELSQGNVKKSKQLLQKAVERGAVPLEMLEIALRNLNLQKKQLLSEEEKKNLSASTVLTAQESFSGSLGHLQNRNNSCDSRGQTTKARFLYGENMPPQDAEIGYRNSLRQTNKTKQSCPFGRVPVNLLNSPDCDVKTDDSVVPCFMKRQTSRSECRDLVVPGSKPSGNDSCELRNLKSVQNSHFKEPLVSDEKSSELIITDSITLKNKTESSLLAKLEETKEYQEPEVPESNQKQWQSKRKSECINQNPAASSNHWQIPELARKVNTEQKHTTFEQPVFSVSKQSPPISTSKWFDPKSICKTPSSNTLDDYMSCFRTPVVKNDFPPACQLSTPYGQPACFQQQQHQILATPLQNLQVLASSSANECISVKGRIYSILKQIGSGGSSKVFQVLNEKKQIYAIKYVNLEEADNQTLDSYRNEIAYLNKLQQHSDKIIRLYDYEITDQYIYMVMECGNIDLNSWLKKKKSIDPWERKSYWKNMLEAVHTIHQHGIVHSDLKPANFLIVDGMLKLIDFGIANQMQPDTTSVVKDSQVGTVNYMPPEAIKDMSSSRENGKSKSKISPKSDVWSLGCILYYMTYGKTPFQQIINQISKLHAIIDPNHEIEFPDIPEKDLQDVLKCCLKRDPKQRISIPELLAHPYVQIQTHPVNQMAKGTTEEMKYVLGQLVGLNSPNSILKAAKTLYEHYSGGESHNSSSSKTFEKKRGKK

Mps-1 kinase [3] = molecular target: T1, Mps-1 kinase; assay: Mps-1 kinase assay with 10 μM ATP (TR-FRET)

Hydrolysis at pH 2; Decay in % after 24 h [1] [%] | IC50 (Mps-1 kinase [2]) [nM] | IC50 (Mps-1 kinase [3]) [nM] | SMILES
<10 | 21 | ≤ 1 | CCN(CC)C(=O)c1ccc(Nc2nc3ccc(-c4ccc(NC(=O)Cc5ccc(F)cc5)cc4)cn3n2)c(OCCOC)c1 [Example 01.26, N,N-diethyl-4-{[6-(4-{[(4-fluorophenyl)acetyl]amino}phenyl)[1,2,4]triazolo-[1,5-α]pyridin-2-yl]amino}-3-(2-methoxyethoxy)benzamide]
<10 | ≤ 1 | ≤ 1 | CC(C)(CO)NC(=O)c1ccc(Nc2nc3ccc(-c4ccc(C(=O)NCc5ccc(F)cc5)cc4)cn3n2)c(OCC(F)(F)F)c1 [Example 02.18, 4-[(6-{4-[(4-fluorobenzyl)carbamoyl]phenyl}[1,2,4]triazolo[1,5-α]pyridin-2-yl)amino]-N-(1-hydroxy-2-methylpropan-2-yl)-3-(2,2,2-trifluoroethoxy)-benzamide]
